The test system of data set [1] is Salmonella enterica food isolate. Kind of data set: Broth microdilution assay (MIC). Type of data set: cell-based. To be noted: 18 h, S. enterica food isolate. As for the experimental part:
(§1) The antibacterial activity of all compounds was evaluated by determining the minimum inhibitory concentration (MIC), which is defined as the lowest concentration of the compound at which no visible bacterial growth is detected. The compounds were tested against representatives of Gram-positive and Gram-negative strains, including the ESKAPE bacterium Staphylococcus aureus ATCC25923 and the clinical isolate of methicillin-resistant S. aureus (MRSA), which are known for their pathogenicity.
(§2) The collection included five Gram-positive strains, including Staphylococcus aureus (ATCC 25923 and a methicillin-resistant Staphylococcus aureus clinical strain MRSA), Bacillus cereus ATCC 14579, Enterococcus faecalis ATCC 29212, and Listeria monocytogenes ATCC 7644; and three Gram-negative strains: Escherichia coli ATCC 25922, Pseudomonas aeruginosa ATCC 27853 and the food isolate Salmonella enterica. All microbial strains were maintained at ™80 °C for long-term storage and subcultured on Mueller-Hinton (MH) agar (Biolife, Italy) prior to broth microdilution experiments. The MH plates were stored at +4 °C for no longer than one month.
(§3) Antibacterial activity was evaluated using the Broth Microdilution Assay according to the Clinical and Laboratory Standard Institute’s Methods for Dilution Antimicrobial Susceptibility Test for Bacteria That Grow Aerobically; Approved Standard-Tenth Edition.
(§4) The stock solution of QAS (10 mg/mL) was prepared in 4% DMSO. Then, 100 µL of the tested QAS was added to the first well of the microtiter plate. Twofold serial dilutions in Muller-Hinton broth were performed over the entire plate at a concentration range of 5 mg/mL to 5 µg/mL. To each well, 50 µL of mid-exponentially grown inoculum containing 10^5 CFU/mL in Mueller-Hinton broth was added and incubated at 37 °C for 18 hours. The minimum inhibitory concentration (MIC) was determined as the lowest concentration at which no visually detectable bacterial growth occurred in the wells.

The test system of data set [2] is methicillin-resistant Staphylococcus aureus clinical strain MRSA. Kind of data set: Broth microdilution assay (MIC). Type of data set: cell-based. As for the experimental part: as §1, §2, §3, §4
Data set [3] has as its system Bacillus cereus ATCC14579. Kind of data set: Broth microdilution assay (MIC). Type of data set: cell-based. As for the experimental part: as §1
(§5) All microbial strains were maintained at ™80 °C for long-term storage and subcultured on Mueller-Hinton (MH) agar (Biolife, Italy) prior to broth microdilution experiments. The MH plates were stored at +4 °C for no longer than one month.
as §3
(§6) The stock solution of QAS (10 mg/mL) was prepared in 4% DMSO. Then, 100 µL of the tested QAS was added to the first well of the microtiter plate. Twofold serial dilutions in Muller-Hinton broth were performed over the entire plate at a concentration range of 5 mg/mL to 5 µg/mL. […] The minimum inhibitory concentration (MIC) was determined as the lowest concentration at which no visually detectable bacterial growth occurred in the wells.

Data set [4] relates to Enterococcus faecalis ATCC29212. Kind of data set: Broth microdilution assay (MIC). Type of data set: cell-based. As for the experimental part:
as §1, §5, §3, §6

In data set [5] the test system is Escherichia coli ATCC25922. Kind of data set: Broth microdilution assay (MIC). Format: cell-based. The following applies: ATCC25922, 18 h. As for the experimental part:
as §1, §5, §3, §6

The subject of data set [6] is Listeria monocytogenes ATCC7644. Kind of data set: Broth microdilution assay (MIC). Type of data set: cell-based. As for the experimental part: as §1, §5, §3, §6
Data set [7] has as its system Pseudomonas aeruginosa ATCC27853. Kind of data set: Broth microdilution assay (MIC). Type of data set: cell-based. As for the experimental part: as §1, §5, §3, §6
Data set [8] has as its system Staphylococcus aureus ATCC25923. Kind of data set: Broth microdilution assay (MIC). Type of data set: cell-based. The following applies: for MIC: Staphylococcus aureus. As for the experimental part: as §1, §5, §3, §6
A further data set has as its system HaCaT cells. Kind of data set: Cytotoxicity (MTS assay). To be noted: 48 h. As for the experimental part: (§7) Keratinocytes are the primary cell type found in the outermost layer of the skin. Therefore, HaCaT cells were used as a model for human skin, and RPE1 are retinal pigment epithelial cells, thus a model for epithelial cell type.
(§8) Cells were grown in DMEM media in a humidified environment with 5% CO2 and 37 °C. To determine cytotoxicity, a twofold serial dilution of a tested compound starting at 5 mg/mL was prepared in a 96-well plate. Five thousand cells were pipetted into each well, and the cells were grown for an additional 48 h. Then, the reagent MTS (20 μL) was added to the cells according to the manufacturer’s instructions (CellTiter 96® Aqueous One Solution Cell Proliferation Assay, Promega). After 3 h of incubation, the absorbance was measured at 490 nm. IC50 values were determined by plotting compound concentration against absorbance using GraFit6 software.

For another data set, the system named is RPE1 cells. Kind of data set: Cytotoxicity (MTS assay). The following applies: 48 h. As for the experimental part:
as §7, §8

The subject of data set [9] is Tobacco mosaic virus (TMV). Kind of data set: Antiphytoviral activity assay (local lesions on host plant leaves). Type of data set: in vivo, Tobacco mosaic virus on Datura stramonium. To be noted: Datura stramonium leaves. As for the experimental part: Leaves of Nicotiana tabacum L. cv. Samsun plants systemically infected with Tobacco mosaic virus (TMV) were ground in 0.06 mol/L phosphate buffer, pH 7.0 (1:1, w/v) to prepare virus inocula. […] Leaves of the local host Datura stramonium L. were dusted with silicon carbide (Sigma-Aldrich, St. Louis, MO, USA) before virus inoculation, and the inoculum was diluted with inoculation buffer to obtain 5–20 lesions per inoculated leaf. Experiments were performed when the experimental plants reached the 4–6 leaf stage.
The tested QAS (10 mg/mL) were dissolved in 4% DMSO and added to the virus inocula at a final concentration of 100 µg/mL. DMSO was added to the control virus inocula at the same concentration. The control and treated plants were then rubbed with the prepared inocula and the antiviral activity of the tested compounds was evaluated by the percentage inhibition of the number of local lesions on the leaves of the treated and control plants as described in [40]. The obtained data were analyzed in Excel (Microsoft Office) and significant differences were determined by t-test.

The mark [10] stands for this setting: compound 100 µg/mL inoculated simultaneously with TMV.

Where “and” joins values, the source holds several entries; their conditions need not be identical. Equal values may be shown once. Read-outs that look alike come from different tables or passages of the source.

Take `ON=Cc1ccncc1` [Py-4-ox, pyridine-4-aldoxime, reference compound]: the MIC is 5000 µg/mL and 40900 µM in data set [1]; above 5000 mg/L in data set [2] (18 h, S. aureus clinical/MRSA, read-out: MIC); above 5000 mg/L in data set [3] (18 h, B. cereus ATCC14579, read-out: MIC); 5000 µg/mL and 40900 µM in data set [4] (18 h, E. faecalis ATCC29212, read-out: MIC); > 5000 µg/mL and > 40900 µM in data set [5] (E. coli ATCC25922, read-out: MIC); > 5000 µg/mL and > 40900 µM in data set [6] (18 h, L. monocytogenes ATCC7644, read-out: MIC). The MIC is > 5000 µg/mL and > 40900 µM in data set [7] (18 h, P. aeruginosa ATCC27853, read-out: MIC); above 5000 mg/L in data set [8] (S. aureus ATCC25923, 18 h, 37 °C, read-out: MIC). Further, the Cytotoxicity in words result with HaCaT cells and in the data set with RPE1 cells was “moderately toxic” each time.

For the compound `ON=Cc1cc[n+](CCCCCCCCCCBr)cc1.[Br-]` [Py-C10Br, N-(10-bromodecyl)-4-hydroxyiminomethylpyridinium bromide], the melting point lay within 103 to 105 °C. Moreover, the MIC in [1] is 5000 µg/mL and 11800 µM. Besides, inhibition of growth in data set [2] (MRSA, 18 h) (MIC) required 310 mg/L. The same compound showed an MIC in data set [3] (ATCC14579, 18 h) of 630 mg/L. The MIC in [4] (ATCC29212, 18 h) was 5000 µg/mL and 11800 µM. The MIC in data set [5] (E. coli ATCC25922) is 630 µg/mL and 1490 µM. Also, the MIC in data set [6] (ATCC7644, 18 h) is 5000 µg/mL and 11800 µM. Besides, the MIC in data set [7] (ATCC27853, 18 h) was > 5000 µg/mL and > 11800 µM. Further, the MIC in data set [8] (ATCC25923, 18 h) came to 630 mg/L.

The compound `ON=Cc1cc[n+](CCCCCCCCCCCCBr)cc1.[Br-]` [Py-C12Br, N-(12-bromododecyl)-4-hydroxyiminomethylpyridinium bromide] showed a melting point of 109 to 110 °C. Also, the MIC in [1] is 2500 µg/mL and 5550 µM. The same compound gave a minimum inhibitory concentration (MIC) in data set [2] (MRSA, 18 h) of 310 mg/L. For the same compound, in [3] (ATCC14579, 18 h), 630 mg/L was the least that counted as inhibitory (MIC). For the same compound, the MIC in [4] (ATCC29212, 18 h) is 1250 µg/mL and 2780 µM. Moreover, in data set [5] (E. coli ATCC25922), the MIC was 630 µg/mL and 1400 µM. Besides, the MIC in data set [6] (ATCC7644, 18 h) was 1250 µg/mL and 2780 µM. In addition, the minimal inhibitory concentration (MIC) in data set [7] (ATCC27853, 18 h) is 2500 µg/mL and 5550 µM. The compound also came in with an MIC in [8] (ATCC25923, 18 h) of 160 mg/L. For the same compound, the “Number of local lesions (LLN ± SD)” value in data set [9] (setting [10]) came to 6.3±1.6. Also, the “Percentage of inhibition of local lesions” value in [9] (compound 100 µg/mL inoculated simultaneously with TMV, vs control plants) was 57.7%.

On to `CCCCCCCCCCCCCC[n+]1ccc(C=NO)cc1` [Py-C14], for which the MIC in [1] is 2500 µg/mL and 6260 µM; in [2] (MRSA, 18 h) it was 160 mg/L; in data set [3] (ATCC14579, 18 h), 1250 mg/L; in data set [4] (ATCC29212, 18 h) it was 310 µg/mL and 780 µM; in data set [5], 630 µg/mL and 1580 µM; in data set [6] (ATCC7644, 18 h) it was 310 µg/mL and 780 µM. In addition, the MIC in data set [7] (ATCC27853, 18 h) is 2500 µg/mL and 6260 µM; in data set [8] (ATCC25923, 18 h), 80 mg/L. For the same compound, in data set [9] (100 µg/mL), the “fold higher LLN than the control BAB” value came to 5 fold. Besides, the “Number of local lesions (LLN ± SD)” value in [9] (setting [10]) was found to be 1.0±0.4. Also, the Cytotoxicity in words result with HaCaT cells and in the data set with RPE1 cells was “moderately toxic” each time.

Turning to `CCCCCCCCCCCCCCCC[n+]1ccc(C=NO)cc1` [Py-C16], the MIC in [1] is 5000 µg/mL and 11700 µM; in [2] (MRSA), 160 mg/L; in data set [2] (MRSA, 18 h), 160 mg/L; in data set [3] (ATCC14579, 18 h), 160 mg/L; in data set [4] (ATCC29212, 18 h), 2500 µg/mL and 5850 µM; in data set [5], 160 µg/mL and 370 µM. Moreover, the MIC in data set [6] (ATCC7644, 18 h) was 1250 µg/mL and 2920 µM; in data set [7] (ATCC27853, 18 h) it was 2500 µg/mL and 5850 µM; in [8] (ATCC25923, 18 h), 40 mg/L. In addition, the “fold higher MIC than CPC” value in data set [8] (S. aureus ATCC25923) came out at 28 fold. The “fold higher MIC than cefotaxime” value in data set [8] (S. aureus ATCC25923) was 10 fold. The Cytotoxicity in words entry with HaCaT cells and with RPE1 cells was “moderately toxic” in each case.

Values taken from PMC9315884, “New Membrane Active Antibacterial and Antiviral Amphiphiles Derived from Heterocyclic Backbone of Pyridinium-4-Aldoxime” (Pharmaceuticals, 2022).
